What was measured:
[1] = test system: human primary hair follicles (melanocyte stem cells at the bulge area); assay: Pigmentation assay on isolated human primary hair follicles in culture, H2O2 stress; assay type: cell-based; details: positive control, 3% H2O2
Description: A novel platform for assaying human primary hair follicles in culture was developed to profile anti-graying potentially active agents (see FIG. 1). Normal human scalp specimens were obtained from various surgeries or from donor and recipient scalp hair derived from plastic surgery. […] Intact human skin specimens were implanted in semi-solid agarose (2% agarose diluted with Williams' medium E (Gibco™) at 1:5 ratio). The hair follicle culture medium was based on Williams' medium E (Gibco™) supplemented with 2 mmol/L L-glutamine, hydrocortisone 10 ng/ml, insulin 10 μg/ml, penicillin 100 U/ml, streptomycin 100 μg/ml, and amphotericin B 25 μg/ml. To maximize the effects of the test formulations and to exclude the variability of delivery ability of the formulations through the epidermis, the test formulations were applied directly at the bulge area of the follicles using the method as follows: (1) tissue preparation and culture for 8-24 hrs. (2) Isolation of individual follicles (3) Vertically embedding in semisolid media (4) Treatment with test formulation/Positive control on the bulge area of the hair follicles (5) Incubation for 24 hrs. (6) 3% H2O2 treatment (7) Incubation for 2 hrs. (8) Repositioning in semisolid media (9) Z-stacking imaging & Analysis on day 1, 3, 7 after H2O2 treatment For the experiment, a total of 602 follicles from 9 different donors were utilized. […]

[2] = test system: ROS in hair follicles; assay: Reactive Oxygen Species (ROS) assay on individual follicles; assay type: cell-based, human; details: NAC pretreatment, ionizing radiation 4, 8 or 12 Gy or 3% H2O2; ROS labeling 2 hours after treatment; compared to IR or H2O2 alone
Description: A Reactive Oxygen Species (ROS) assay was used for individual follicle observation with 5-(and-6)-chloromethyl-2′,7′-dichlorodihydrofluorescein diacetate, acetyl ester (CM-H2DCFDA). CM-H2DCFDA is a chloromethyl derivative of […], 2′,7′-dichlorohydrofluorescein diacetate (H2DCFDA), and is useful as an indicator for general ROS in cells. ROS should be labeled after 2 hours and imaged in 20 minutes, and the protocol included dissection of the follicles first before H2O2 treatment. […] The ROS detection protocol was as follows: (1) tissue preparation and culture (2) Isolation of individual follicles (3) Vertically embedding in semisolid media (4) Antioxidant treatment (NAC) on the bulge area of the hair follicles (5) Incubation for […]. (6) Treatment with ionizing radiation (e.g., 8.0 Gray) or H2O2 (7) Incubation for 2 hrs. […] NAC was applied for 24 hours before the ionizing radiation or H2O2 treatment and then 2 hours after treatment, ROS labeling and imaging have been done. The ionizing radiation was administered at doses of 4 gy, 8 Gy, or 12 Gy. Topical administration of hydrogen peroxide was used at a dose of 3%. The ROS positive cells were counted and they were normalized to DAPI positive cells.

[3] = test system: hair follicles; assay: Pigmented cell counts after NAC treatment (FIG. 12); assay type: cell-based, human; details: statistical significance not evaluable
[4] = test system: melanocyte stem cells (MSCs) in the bulge areas of hair follicles of human scalp skin; assay: Melanocyte stem cell damage and pigmentation assay, topical application on intact human skin specimens; assay type: cell-based; details: topical 24 hours, then 3% H2O2 24 hours; eight follicles per treatment
Description: Formulation A, placebo A, or the positive control (CPC) were topically applied to the human skin specimens for 24 hours. The specimens were next treated with 3% hydrogen peroxide (H2O2) for 24 hours at 37° C. and incubated in 5% CO2 to trigger the DNA-damage response. After 24 hours of hydrogen peroxide treatment, all portions of the hair follicles were isolated from stress treated human skin scalp. Upon isolation, the hair follicles were washed gently several times in Phosphate-buffered saline (PBS) and transferred intact into soft agar with fresh growth medium in a cell culture incubator at 37° C. and 5% CO2. Hair follicles were examined under bright field microscopy after completion of the hydrogen peroxide treatment daily from day 0 (completion of peroxide treatment) to day 7. Pigmented melanocyte stem cells (MSCs) found in the bulge areas of hair follicles were counted in the bright field view. Formulation A and Placebo A, and the positive control (CPC) were tested, and eight follicles were investigated from each treatment. Paired T-test was applied for data analysis. […] P-value of 0.05 was set as the threshold of statistical significance. […] Eight follicles were analyzed in each test set.

For `CC(=O)N[C@@H](CS)C(=O)O` [NAC, N-acetyl-cysteine], the “pigmentation prevention at the bulge area of the follicle” value [1] was “effective on the pigmentation prevention with statistical significance”, the “ROS generation (ROS positive cells normalized to DAPI positive cells)” value [2] was “decreased compared to IR or H2O2 treatment alone” and the “pigmented cell counts after the NAC treatment” value [3] was “tendency showing decreased pigmented cell counts”. The hydrogen peroxide-induced pigmentation [4] was “suppressed”.

From patent US20190167561A1, “METHODS AND COMPOSITIONS FOR REDUCING THE GRAYING OF HAIR” (Natura Cosmeticos SA, priority 2016, published 2019)
